Results on 15 compounds are retold here after US6191130A, “Cyclohexane derivatives difunctionalised in 1,4 as ligands of 5T H1A receptors” (Pierre Fabre Medicament, priority 1997, dated 2001).

Assay [1] concerns the target T1, 5-HT1A receptor (Rattus norvegicus, UniProt P19327).
T1 sequence (P19327 1-422): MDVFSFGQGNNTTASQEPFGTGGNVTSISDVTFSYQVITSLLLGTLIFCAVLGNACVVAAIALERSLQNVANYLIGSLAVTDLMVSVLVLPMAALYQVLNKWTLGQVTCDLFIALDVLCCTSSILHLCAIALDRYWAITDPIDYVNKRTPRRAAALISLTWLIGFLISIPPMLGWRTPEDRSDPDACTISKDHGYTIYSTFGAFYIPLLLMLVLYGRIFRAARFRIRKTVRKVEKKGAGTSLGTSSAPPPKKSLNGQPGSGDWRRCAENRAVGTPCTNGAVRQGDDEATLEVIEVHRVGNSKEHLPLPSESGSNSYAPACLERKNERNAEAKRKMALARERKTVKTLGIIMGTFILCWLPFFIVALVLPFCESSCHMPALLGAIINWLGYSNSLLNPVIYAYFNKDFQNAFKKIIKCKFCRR
Kind of assay: 5-HT syndrome (serotoninergic syndrome) in the male rat. In kind it is in vivo, male rat (Sprague-Dawley). The arrangement: carried out with the male rat (Sprague-Dawley); from tissue; host or cells: whole living rat (Sprague-Dawley). Conditions: po. On the procedure: The central activity of the compounds of the invention was evaluated by their ability to provoke the 5-HT syndrome, which is characterized by:
an alternating bending and stretching of the forepaws (reciprocal fore-paw treading: FPT)
the retraction of the lower lip (lower lip retraction: LLR)
a position or the ventral surface of the animal is in contact with the ground and the hind paws extended (flat body posture: FBP).
The experiments on the evaluation of the 5-HT syndrome are carried out with the male rat (Sprague-Dawley) according to the technique described by F. C. Colpaert et al. (Drug. Dev. Res., 26, 21-48, 1992) and M. S. Kleven et al. (J.P.E.T., 282, 747-759, 1997).

The target of assay [2] is T1, 5-HT1A receptor. Nature of the assay: Binding to the 5-HT1A receptor (displacement of [3H]8-OH-DPAT, rat cortex). Set-up: Brains from male Sprague-Dawley 180-200 g rats; tissue Iffa Credo, France (animals); host or cells: rat brain cortex; species or system male Sprague-Dawley rat. Conditions: read-out: pKi 5-HT1A (converted). The procedure: (§1) Binding to the 5-HT1A, D2 dopaminergic and α1-adrenergic receptors:
(§2) Brains from male Sprague-Dawley 180-200 g rats [Ico: OFA SD (I.O.P.S. Caw); Iffa Credo, France], maintained at -70° C., were used in all the studies.
(§3) The affinity of the products for the various receptors was determined by displacement of radioactive ligands under the conditions summarized in Table 1.
(§4) The reaction is halted by rapid filtration, under vacuum, through Whatman GF/B filters and the tubes are rinsed with 2×5 ml of Tris-HCl 50 mM, pH 7.4, buffer at 25° C. The radioactivity collected on the filter is analyzed by liquid scintillation after addition of 4 ml of liquid scintillant (Emulsifier Safe, Packard). All the experiments are carried out in triplicate.
(§5) The inhibition constants (Ki) of the products are estimated from the displacement experimentations by using the EBDA (equilibrium binding data analysis) Radlig Version 4 non linear regression program (Biosoft, Cambridge, UK; McPherson, 1985).
(§6) The pKi (-log Ki) values are given in the form of the mean±SEM of at least 3 experimentations (Table 2).
10 A Assie and Koek, Eur. J.
In general terms: Loss of bound radioactivity is the signal in a displacement assay; it reports binding, not function.

A further assay deals with α1-adrenergic receptor. Nature of the assay: Binding to the α1-adrenergic receptor (displacement of [3H]prazosin, rat cortex). Set-up: species or system male Sprague-Dawley rat. Conditions: mean of at least 3 experimentations. On the procedure:
as §1, §2, §3, §4, §6

Assay [3] can be described thus: Antidepressant activity: Forced swimming test. Conditions: percentage of animals with significant decrease (p<0.05) in immobility time vs control; po. The format is in vivo.
In the next assay the target is T2, D2 dopaminergic receptor (Rattus norvegicus, UniProt P61169).
T2 construct: Brains from male Sprague-Dawley 180-200 g rats; tissue Iffa Credo, France (animals); host or cells: rat brain striatum
T2 sequence (P61169 whole entry): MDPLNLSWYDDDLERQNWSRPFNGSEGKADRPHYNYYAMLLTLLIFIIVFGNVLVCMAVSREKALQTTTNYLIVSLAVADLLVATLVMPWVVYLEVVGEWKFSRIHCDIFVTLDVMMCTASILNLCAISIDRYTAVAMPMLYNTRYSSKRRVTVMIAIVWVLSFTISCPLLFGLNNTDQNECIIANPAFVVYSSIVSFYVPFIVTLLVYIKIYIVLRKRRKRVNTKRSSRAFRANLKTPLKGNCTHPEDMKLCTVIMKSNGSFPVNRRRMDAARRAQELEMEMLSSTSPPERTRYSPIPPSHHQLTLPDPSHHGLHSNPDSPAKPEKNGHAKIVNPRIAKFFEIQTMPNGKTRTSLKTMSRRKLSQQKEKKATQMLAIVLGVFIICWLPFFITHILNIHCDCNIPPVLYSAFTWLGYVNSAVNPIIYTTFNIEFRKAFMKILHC
Nature of the assay: Binding to the D2 dopaminergic receptor (displacement of [3H]YM-09151-2, rat striatum). Set-up: species or system male Sprague-Dawley rat. Conditions: read-out: pKi D2 (converted). On the procedure:
as §1, §2, §3, §4, §5, §6

[4] abbreviates: FBP, read-out: ED50 FBP (flat body posture).
Setting [5] is: FPT, read-out: ED50 FPT (reciprocal fore-paw treading).
Where [6] appears, read: LLR, read-out: ED50 LLR (lower lip retraction).

Each structure is given as a SMILES string. Like-named read-outs stand apart in the source and are kept apart here.

In the case of `Cn1ncc(O[C@H]2CC[C@H](NCC3COc4ccccc4O3)CC2)nc1=O` (relative stereo) [Compound 16, Trans-5-[4-[(2,3-Dihydrobenzo[1,4]Dioxin-2-Ylmethyl)Amino]Cyclohexyloxy]-2-Methyl-2H-[1,2,4]Triazin-3-One], the 50% effective dose (ED50) (as a rule, the dose that gives a 50% effect, or the effect in half of the subjects) was 0.31 mg/kg on 5-HT1A receptor [1] (setting [4]), greater than 2.5 mg/kg on 5-HT1A receptor [1] (setting [5]) and 0.08 mg/kg at 5-HT1A receptor [1] (setting [6]). Further, the Ki on 5-HT1A receptor [2] is 0.166 nM.

`O=C1CC2(CCCC2)CC(=O)N1CCCCN1CCN(c2ncccn2)CC1` [Buspirone, reference compound]: at α1-adrenergic receptor, the “pKi α1” value is 6.19. Moreover, the figures for the ED50 (in assay [3]; on 5-HT1A receptor [1] (setting [5]); on 5-HT1A receptor [1] (setting [6])) were greater than 160 mg/kg, greater than 40 mg/kg and 2.5 mg/kg, respectively.

As to `Cn1c(=O)cnn([C@H]2CC[C@H](N3CCN(c4ncccn4)CC3)CC2)c1=O` [Compound 4, Trans-4-Methyl-2-[4-(4-Pyrimidin-2-Yl-Piperazin-1-Yl)Cyclohexyl]-2H-[1,2,4]Triazine-3,5-Dione], on α1-adrenergic receptor, the “pKi α1” value is recorded as less than 5.0. In addition, the Ki on D2 dopaminergic receptor is greater than 10000 nM; on 5-HT1A receptor [2], 3.72 nM. Besides, the 50% effective dose (ED50) amounted to 1.25 mg/kg in assay [3], 1.25 mg/kg at 5-HT1A receptor [1] (setting [4]), 1.25 mg/kg at 5-HT1A receptor [1] (setting [5]) and 0.31 mg/kg at 5-HT1A receptor [1] (setting [6]).

With `Cc1cc(C)nc(N2CCN([C@H]3CC[C@H](n4ncc(=O)n(C)c4=O)CC3)CC2)n1` [Compound 5, trans-4-Methyl-2-[4-[4-(4,6-dimethylpyrimidin-2-yl)piperizin-1-yl]cyclohexyl]-2H-[1,2,4]triazine-3,5-dione], the “pKi α1” value on α1-adrenergic receptor came to 5.89. For the same compound, the Ki at D2 dopaminergic receptor was greater than 10000 nM; on 5-HT1A receptor [2] it was 0.603 nM. Besides, the ED50 in assay [3] was 0.31 mg/kg; at 5-HT1A receptor [1] (setting [4]) it was 0.08 mg/kg; at 5-HT1A receptor [1] (setting [5]) it was 0.08 mg/kg; on 5-HT1A receptor [1] (setting [6]), less than 0.04 mg/kg.

As to `Cc1ccnc(N2CCN([C@H]3CC[C@H](n4ncc(=O)n(C)c4=O)CC3)CC2)n1` [Compound 6, Trans-4-Methyl-2-[4-[4-(4-Methylpyrimidin-2-Yl)Piperazin-1-Yl]Cyclohexyl]-2H-[1,2,4]triazine-3,5-dione], the “pKi α1” value on α1-adrenergic receptor was determined as 6.10. Further, the Ki is greater than 10000 nM at D2 dopaminergic receptor and 0.813 nM on 5-HT1A receptor [2]. The ED50 on 5-HT1A receptor [1] (setting [4]), at 5-HT1A receptor [1] (setting [5]) and at 5-HT1A receptor [1] (setting [6]) was 0.08 mg/kg each time.

For the compound `Cn1ncc(O[C@H]2CC[C@H](N3CCN(c4ncccn4)CC3)CC2)nc1=O` [Compound 9, trans-2-Methyl-5-[4-(4-pyrimidin-2-yl-piperizin-1-yl)cyclohexyloxy]-2H-[1,2,4]triazin-3-one], the “pKi α1” value on α1-adrenergic receptor was less than 5.0. Besides, the Ki at D2 dopaminergic receptor is greater than 10000 nM; on 5-HT1A receptor [2] it was 0.708 nM. The ED50 in assay [3] came out at 0.31 mg/kg; at 5-HT1A receptor [1] (setting [4]), 0.08 mg/kg; at 5-HT1A receptor [1] (setting [5]), 0.31 mg/kg; at 5-HT1A receptor [1] (setting [6]) it was 0.08 mg/kg.

As for `Cc1ccnc(N2CCN([C@H]3CC[C@H](Oc4cnn(C)c(=O)n4)CC3)CC2)n1` [Compound 10, trans-2-Methyl-5-[4-[4-(4-methylpyrimidin-2-yl)piperazin-1-yl]cyclohexyloxy]-2H-[1,2,4]triazin-3-one], the “pKi α1” value on α1-adrenergic receptor amounted to 5.95. For the same compound, the Ki on D2 dopaminergic receptor is greater than 10000 nM; at 5-HT1A receptor [2] it was 0.251 nM. For the same compound, the ED50 in assay [3] amounted to 0.08 mg/kg; at 5-HT1A receptor [1] (setting [4]), 0.08 mg/kg; at 5-HT1A receptor [1] (setting [5]), 0.08 mg/kg; at 5-HT1A receptor [1] (setting [6]) it was 0.02 mg/kg.

With `Cc1cc(C)nc(N2CCN([C@H]3CC[C@H](Oc4cnn(C)c(=O)n4)CC3)CC2)n1` [Compound 11, Trans-2-Methyl-5-[4-[4-(4,6-Dimethyl-Pyrimidin-2-Yl)Piperazin-1-Yl]Cyclohexyloxy]-2H-[1,2,4]triazin-3-one], the “pKi α1” value at α1-adrenergic receptor was 5.72. The Ki on D2 dopaminergic receptor is greater than 10000 nM; at 5-HT1A receptor [2] it was 0.251 nM. Moreover, the ED50 was 0.08 mg/kg in assay [3], 0.02 mg/kg at 5-HT1A receptor [1] (setting [4]), 0.08 mg/kg on 5-HT1A receptor [1] (setting [5]) and 0.02 mg/kg at 5-HT1A receptor [1] (setting [6]).

With `Cn1ncc(O[C@H]2CC[C@H](N3CCN(c4nccc(Cl)n4)CC3)CC2)nc1=O` [Compound 12, Trans-2-Methyl-5-[4-[4-(4-Chloropyrimidin-2-Yl)Piperazin-1-Yl]Cyclohexyloxy]-2H-[1,2,4]Triazin-3-One], the “pKi α1” value at α1-adrenergic receptor amounted to 6.21. Also, the Ki on D2 dopaminergic receptor was greater than 10000 nM; at 5-HT1A receptor [2], 0.288 nM. For the same compound, the ED50 came out at 0.74 mg/kg in assay [3], 0.08 mg/kg on 5-HT1A receptor [1] (setting [4]), 0.08 mg/kg on 5-HT1A receptor [1] (setting [5]) and 0.08 mg/kg at 5-HT1A receptor [1] (setting [6]).

On to `COc1ccnc(N2CCN([C@H]3CC[C@H](Oc4cnn(C)c(=O)n4)CC3)CC2)n1` [Compound 13, Trans-2-Methyl-5-[4-[4-(4-Methoxypyrimidin-2-Yl)Piperazin-1-yl]Cyclohexyloxy]-2H-[1,2,4]triazin-3-One], for which, on α1-adrenergic receptor, the “pKi α1” value is 6.65. For the same compound, the Ki at D2 dopaminergic receptor was greater than 10000 nM; on 5-HT1A receptor [2] it was 0.525 nM. The median effective dose (ED50) was found to be 0.31 mg/kg on 5-HT1A receptor [1] (setting [4]), 0.31 mg/kg at 5-HT1A receptor [1] (setting [5]) and 0.08 mg/kg at 5-HT1A receptor [1] (setting [6]).

In the case of `Cn1ncc(O[C@H]2CC[C@H](N3CCN(c4nccc(C(F)(F)F)n4)CC3)CC2)nc1=O` [Compound 14, Trans-2-Methyl-5-[4-[4-(4-Trifluoro-Methylpyrimidin-2-Yl)Piperazin-1-Yl]Cyclohexyloxy]-2H-[1,2,4]Triazin-3-One], the ED50 on 5-HT1A receptor [1] (setting [4]) is 0.31 mg/kg; on 5-HT1A receptor [1] (setting [5]), 0.31 mg/kg; at 5-HT1A receptor [1] (setting [6]) it was 0.08 mg/kg.

Consider `Cn1ncc(O[C@H]2CC[C@H](N3CCN(c4ncc(F)cn4)CC3)CC2)nc1=O` [Compound 15, Trans-2-Methyl-5-[4-[4-(5-Fluoropyrimidin-2-Yl)Piperazin-1-yl]Cyclohexyloxy]-2H-[1,2,4]Triazin-3-One], for which the ED50 on 5-HT1A receptor [1] (setting [4]) is 1.25 mg/kg; on 5-HT1A receptor [1] (setting [5]), greater than 2.5 mg/kg; at 5-HT1A receptor [1] (setting [6]) it was 0.31 mg/kg.

As to `Cn1nc(N[C@H]2CC[C@H](N3CCN(c4cccc(Cl)c4)CC3)CC2)c(=O)n(C)c1=O` [Compound 17, trans-6-{4-[4-(3-Chlorophenyl)piperazin-1-yl]cyclohexylamino}-2,4-dimethyl-2H-[1,2,4]triazine-3,5-dione], the “pKi α1” value on α1-adrenergic receptor is reported as 7.74. Besides, the Ki was 603 nM on D2 dopaminergic receptor and 0.398 nM at 5-HT1A receptor [2].

Turning to `Cn1nc(N(C)[C@H]2CC[C@H](N3CCN(c4cccc(Cl)c4)CC3)CC2)c(=O)n(C)c1=O` [Compound 19, Trans-6-({4-[4-(3-Chlorophenyl)Piperazin-1-Yl]Cyclohexyl}Methylamino)-2,4-Dimethyl-2H-[1,2,4]Triazine-3,5-Dione], the “pKi α1” value on α1-adrenergic receptor turned out to be 7.86. Further, the Ki was greater than 10000 nM at D2 dopaminergic receptor and 0.195 nM at 5-HT1A receptor [2].

As for `O=C(NCCN1CCN(c2cccc3c2OC[C@H](CO)O3)CC1)c1ccc(F)cc1` [Flesinoxan, reference compound], the “pKi α1” value on α1-adrenergic receptor was 6.50. For the same compound, the Ki on D2 dopaminergic receptor is 89.1 nM; at 5-HT1A receptor [2] it was 1.23 nM. In addition, the ED50 in assay [3] was found to be 1.25 mg/kg; at 5-HT1A receptor [1] (setting [4]), 1.25 mg/kg; at 5-HT1A receptor [1] (setting [5]), 5 mg/kg; at 5-HT1A receptor [1] (setting [6]), 1.25 mg/kg.
